This is an account of results in patent publication US20200031811A1, “SUBSTITUTED MONO- AND POLYAZANAPHTHALENE DERIVATIVES AND THEIR USE” (Basilea Pharmaceutica International AG, priority 2015, published 2020).

By IC50 is commonly meant the point on the concentration scale where inhibition reaches its midpoint.

One experiment concerns the target T1, MNK1 (Homo sapiens, UniProt Q9BUB5).
T1 construct: purchased Life Technologies or Carna Biosciences PV6023 or 02-145; host or cells: baculovirus infected insect cells
Briefly: MNK inhibition assay (Z-Lyte kinase assay, Ser/Thr 7 peptide). Format: biochemical. To be noted: for IC50: recombinant GST-MNK1, 3 hours at 31° C. The essentials: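 Recombinant GST-MNK1 from baculovirus-infected insect cells, Z-Lyte Ser/Thr 7 peptide, enzyme set for ~30% phosphorylation in buffer-only wells; 3 hours at 31° C. Compounds at 50–10000 nM (potent ones down to 0.5 nM), at least duplicate. IC50 from % substrate phosphorylation versus buffer-only wells, fluorescence read-out.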

The test system of experiment [1] is human pancreatic cancer cell line MiaPaCa2 (ATCC CRL-1420). Description: Cell growth assay (CellTiterGlo, 72 hours). Format: cell-based. To be noted: MIA PaCa-2, MiaPaCa2 cells, 72 hours, read-out: IC50 MiaPaCa. The method, boiled down: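 MiaPaCa2 cells (10^3/well) seeded in supplemented DMEM overnight, then exposed in quadruplicate to compound at 100 down to 0.1 μM for 72 h at 37° C. Growth read by CellTiterGlo luminescence, medium-only background subtracted, normalised to untreated cells; IC50 = concentration reducing growth to 50%.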
In general terms: Cellular ATP, detected with luciferase, serves as a proxy for viable cell number.

T1 sequence (Q9BUB5 whole entry): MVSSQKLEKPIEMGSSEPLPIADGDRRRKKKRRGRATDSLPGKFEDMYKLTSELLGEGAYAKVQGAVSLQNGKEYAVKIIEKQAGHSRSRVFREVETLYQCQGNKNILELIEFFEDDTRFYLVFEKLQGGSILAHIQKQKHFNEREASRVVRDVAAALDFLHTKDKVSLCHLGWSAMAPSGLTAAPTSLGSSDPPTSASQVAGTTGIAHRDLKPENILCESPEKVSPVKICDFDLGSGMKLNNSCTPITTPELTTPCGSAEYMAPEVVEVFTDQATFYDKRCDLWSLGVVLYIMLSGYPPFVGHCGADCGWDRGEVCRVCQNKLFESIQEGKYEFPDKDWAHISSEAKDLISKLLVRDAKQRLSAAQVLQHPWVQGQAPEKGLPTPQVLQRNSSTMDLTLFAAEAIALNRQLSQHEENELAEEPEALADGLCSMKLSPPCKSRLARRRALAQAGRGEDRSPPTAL

`N[C@H]1CC[C@@H](CNc2ccc3cncc(-c4cc5ccccc5o4)c3c2)CC1` [Example 231]: the inhibition at 10 µM on MNK1 (at 10 μM, read-out: Inhibition of MNK1 activity at indicated concentration) was found to be 54%. Also, in experiment [1], the IC50 is 3240 nM.

Regarding `Nc1ncc(-c2cc3ccccc3o2)c2cc(NCc3ccncc3)ccc12` [Example 233, 4-(Benzofuran-2-yl)-N6-(4-pyridylmethyl)isoquinoline-1,6-diamine], the values for the IC50 (at MNK1; in experiment [1]) were 4300 nM and 6800 nM, respectively.

Consider `NC1CCN(Cc2cc(Cl)c3cncc(-c4cc5ccccc5o4)c3c2)CC1` [Example 236, 1-[[4-(Benzofuran-2-yl)-8-chloro-6-isoquinolyl]methyl]piperidin-4-amine], for which the IC50 on MNK1 came to 579 nM; in experiment [1], 4400 nM.

In the case of `NC1CCN(Cc2cc(Cl)c3cncc(-c4ccc(Cl)cc4)c3c2)CC1` [Example 237], the values for the IC50 (at MNK1; in experiment [1]) were 426 nM and 7800 nM, respectively.

Turning to `NC1CCN(Cc2cc(Cl)c3cncc(-c4ccc(F)c(F)c4)c3c2)CC1` [Example 238], the IC50 on MNK1 was 234 nM; in experiment [1], 9080 nM.

Turning to `NC1CCN(Cc2cc(Cl)c3cncc(-c4ccco4)c3c2)CC1` [Example 239], the IC50 at MNK1 amounted to 100 nM; in experiment [1] it was 3200 nM.

Consider `NC1CCN(Cc2cc(Cl)c3cncc(-c4cccs4)c3c2)CC1` [Example 240], for which the IC50 on MNK1 was 145 nM; in experiment [1], 5760 nM.

Take `NC1CCN(Cc2cc(Cl)c3cncc(-c4ccccc4)c3c2)CC1` [Example 241]: the IC50 at MNK1 stood at 213 nM; in experiment [1], 10400 nM.

`COc1cc(CN2CCC(N)CC2)cc2c(-c3cc4ccccc4o3)cncc12` [Example 242, 1-[[4-(Benzofuran-2-yl)-8-methoxy-6-isoquinolyl]methyl]piperidin-4-amine]: the IC50 at MNK1 was 164 nM; in experiment [1] it was 2740 nM.

`COc1cc(CN2CCC(N)CC2)cc2c(-c3ccc(F)c(F)c3)cncc12` [Example 243]: the IC50 on MNK1 was found to be 347 nM; in experiment [1], 5730 nM.

As to `COc1cc(CN2CCC(N)CC2)cc2c(-c3ccco3)cncc12` [Example 244], the half-inhibitory concentration (IC50) is 116 nM at MNK1 and 14200 nM in experiment [1].

Regarding `COc1cc(CN2CCC(N)CC2)cc2c(-c3cccs3)cncc12` [Example 245], the IC50 at MNK1 is 24 nM; in experiment [1] it was 3330 nM.

In the case of `COc1cc(CN2CCC(N)CC2)cc2c(-c3ccccc3)cncc12` [Example 246], the values for the half-maximal inhibitory concentration (IC50) (at MNK1; in experiment [1]) were 432 nM and 5730 nM, respectively.

On to `NC1CCN(Cc2cc(F)c3cncc(-c4cc5ccccc5o4)c3c2)CC1` [Example 247], for which the IC50 at MNK1 turned out to be 228 nM; in experiment [1], 8400 nM.

In the case of `NC1CCN(Cc2cc3c(-c4cc5ccccc5o4)cncc3c(F)c2F)CC1` [Example 248], the IC50 at MNK1 was determined as 147 nM; in experiment [1], 10000 nM.

Regarding `NC1CCN(Cc2cc3c(-c4cc5ccccc5o4)cncc3cc2F)CC1` [Example 249], the IC50 on MNK1 is 44 nM; in experiment [1], 7860 nM.

For `NC1CCN(Cc2cc3c(-c4cc5ccccc5o4)cncc3cc2Cl)CC1` [Example 250], the IC50 is 64 nM at MNK1 and 4940 nM in experiment [1].

Turning to `NC1CCN(Cc2cc3c(-c4ccccc4)cncc3cc2Cl)CC1` [Example 251, 1-[(7-Chloro-4-phenyl-6-isoquinolyl)methyl]piperidin-4-amine], the IC50 was found to be 55 nM at MNK1 and 4550 nM in experiment [1].

Consider `NC1CCN(Cc2cc([N+](=O)[O-])c3cncc(-c4cc5ccccc5o4)c3c2)CC1` [Example 252, 1-[[4-(Benzofuran-2-yl)-8-nitro-6-isoquinolyl]methyl]piperidin-4-amine], for which the IC50 worked out at 308 nM at MNK1 and 20500 nM in experiment [1].

Turning to `Nc1cc2cncc(-c3cc4ccccc4o3)c2cc1CN1CCC(N)CC1` [Example 254, 6-[(4-Amino-1-piperidyl)methyl]-4-(benzofuran-2-yl)isoquinolin-7-amine], the 50% inhibitory concentration (IC50) on MNK1 worked out at 57 nM; in experiment [1] it was 6990 nM.

In the case of `Nc1ncc(-c2cc3ccccc3o2)c2cc(CN3CCC(N)CC3)cc(Cl)c12` [Example 256, 6-[(4-Amino-1-piperidyl)methyl]-4-(benzofuran-2-yl)-8-chloro-isoquinolin-1-amine], the IC50 at MNK1 is 216 nM; in experiment [1], 1220 nM.

Take `Nc1ncc(-c2ccccc2)c2cc(CN3CCC(N)CC3)cc(Cl)c12` [Example 257]: the IC50 was 159 nM on MNK1 and 4870 nM in experiment [1].

`COc1cc(CN2CCC(N)CC2)cc2c(-c3cc4ccccc4o3)cnc(N)c12` [Example 258, 6-[(4-Amino-1-piperidyl)methyl]-4-(benzofuran-2-yl)-8-methoxy-isoquinolin-1-amine]: the IC50 at MNK1 came out at 149 nM; in experiment [1], 3570 nM.

Regarding `COc1cc(CN2CCC(N)CC2)cc2c(-c3ccccc3)cnc(N)c12` [Example 259], the values for the half-inhibitory concentration (IC50) (at MNK1; in experiment [1]) were 66 nM and 1300 nM, respectively.

Turning to `Nc1ncc2ccc(CN3CCNCC3)cc2c1-c1cc2ccccc2o1` [Example 260, 4-(Benzofuran-2-yl)-6-(piperazin-1-ylmethyl)isoquinolin-3-amine], the IC50 at MNK1 came out at 1590 nM; in experiment [1] it was 17500 nM.

For the compound `Nc1ncc2ccc(CNc3ccnc4ccccc34)cc2c1-c1cc2ccccc2o1` [Example 261, 4-(Benzofuran-2-yl)-6-[(4-quinolylamino)methyl]isoquinolin-3-amine], the IC50 on MNK1 is 54 nM; in experiment [1] it was 3990 nM.

Consider `c1ccc2oc(-c3cncc4ccc(CNc5ccnc6ncccc56)cc34)cc2c1` [Example 262, N-[[4-(Benzofuran-2-yl)-6-isoquinolyl]methyl]-1,8-naphthyridin-4-amine], for which the figures for the IC50 (on MNK1; in experiment [1]) were 28 nM and 6800 nM, respectively.

As to `NC1CCN(Cc2ccc3cncc(-c4cc5ccccc5o4)c3c2)CC1(F)F` (stereo not drawn) [Example 263, 1-[[4-(Benzofuran-2-yl)-6-isoquinolyl]methyl]-3,3-difluoro-piperidin-4-amine], the half-maximal inhibitory concentration (IC50) on MNK1 turned out to be 703 nM; in experiment [1] it was 9970 nM.

For the compound `Nc1ncc(-c2ccccc2)c2cc(CN3CCC(N)CC3)c(Cl)cc12` [Example 264, 6-[(4-Amino-1-piperidyl)methyl]-7-chloro-4-phenyl-isoquinolin-1-amine], the IC50 on MNK1 was found to be 194 nM; in experiment [1], 5930 nM.

For the compound `NC1CCN(Cc2cc3c(-c4ccccc4)cncc3cc2O)CC1` [Example 265, 6-[(4-Amino-1-piperidyl)methyl]-4-phenyl-isoquinolin-7-ol], the figures for the IC50 (on MNK1; in experiment [1]) were 308 nM and 21900 nM, respectively.

For `COc1cc2cncc(-c3ccccc3)c2cc1CN1CCC(N)CC1` [Example 266, 1-[(7-Methoxy-4-phenyl-6-isoquinolyl)methyl]piperidin-4-amine], the values for the IC50 (on MNK1; in experiment [1]) were 59 nM and 14400 nM, respectively.

In the case of `COc1cc2c(N)ncc(-c3ccccc3)c2cc1CN1CCC(N)CC1` [Example 267, 6-[(4-Amino-1-piperidyl)methyl]-7-methoxy-4-phenyl-isoquinolin-1-amine], the IC50 is 340 nM at MNK1 and 3930 nM in experiment [1].

As to `N[C@@H]1CCN(Cc2ccc3cncc(-c4cc5ccccc5o4)c3c2)C[C@H]1O` [Example 268, (3R,4R/3S,4S)-4-Amino-1-[[4-(benzofuran-2-yl)-6-isoquinolyl]methyl]piperidin-3-ol], the IC50 at MNK1 is 53 nM; in experiment [1], 5330 nM.

Take `N[C@@H]1CCN(Cc2ccc3cncc(-c4cc5ccccc5o4)c3c2)C[C@@H]1O` [Example 269, (3S,4R/3R,4S)-4-Amino-1-[[4-(benzofuran-2-yl)-6-isoquinolyl]methyl]piperidin-3-ol]: the IC50 at MNK1 turned out to be 141 nM; in experiment [1], 9030 nM.

`CO[C@H]1CN(Cc2ccc3cncc(-c4cc5ccccc5o4)c3c2)CC[C@H]1N` [Example 270, (3S,4R/3R,4S)-1-[[4-(Benzofuran-2-yl)-6-isoquinolyl]methyl]-3-methoxy-piperidin-4-amine]: the IC50 on MNK1 came out at 934 nM; in experiment [1], 13700 nM.

With `CO[C@@H]1CN(Cc2ccc3cncc(-c4cc5ccccc5o4)c3c2)CC[C@H]1N` [Example 271], the figures for the IC50 (at MNK1; in experiment [1]) were 288 nM and 4290 nM, respectively.

As for `c1ccc2oc(-c3cncc4ccc(CNc5ccnc6[nH]ccc56)cc34)cc2c1` [Example 272, N-[[4-(Benzofuran-2-yl)-6-isoquinolyl]methyl]-1H-pyrrolo[2,3-b]pyridin-4-amine], the values for the IC50 (on MNK1; in experiment [1]) were 5.4 nM and 7250 nM, respectively.

In the case of `NC1CCN(Cc2ccc3cncc(-c4cc5cccnc5o4)c3c2)CC1` [Example 273, 1-[(4-Furo{2,3-b}pyridin-2-yl-6-isoquinolyl)methyl]piperidin-4-amine], the IC50 at MNK1 was 767 nM; in experiment [1], 30400 nM.

With `NC1CCN(Cc2ccc3cncc(-c4cc5ccncc5o4)c3c2)CC1` [Example 274], the IC50 turned out to be 624 nM at MNK1 and 3980 nM in experiment [1].

As to `NC1CCN(Cc2ccc3cncc(-c4cc5cnccc5o4)c3c2)CC1` [Example 275], the results for the IC50 (at MNK1; in experiment [1]) were 175 nM and 5070 nM, respectively.

In the case of `NC1CCN(Cc2ccc3cncc(-c4cc5ncccc5o4)c3c2)CC1` [Example 276], the IC50 on MNK1 worked out at 161 nM; in experiment [1] it was 15500 nM.

For the compound `c1ccc2oc(C3CNNc4ccc(CNc5ccncc5)cc43)cc2c1` (stereo not drawn) [Example 277, N-[[4-(Benzofuran-2-yl)-1,2,3,4-tetrahydrocinnolin-6-yl]methyl]pyridin-4-amine], the IC50 at MNK1 came to 131 nM; in experiment [1] it was 5760 nM.
